Tests used:
Format in all cases: in vivo, C57BL/6J mice
phospho-AMPK (Thr172) = test: Western blotting of phospho-AMPK (Thr172) in liver tissue and skeletal muscle; conditions: HFD-fed mice
Procedure: (§1) Experimental Animals: the experiments are conducted under the guidelines of the Institutional Animal Care and Use Committee of Central Taiwan University of Science and Technology. As previously described, four-week-old male C57BL/6J mice (n=63) is purchased from the National Laboratory Animal Breeding and Research Center, Ministry of Science and Technology. After 1-week of acclimatization, mice are designed to initiate the study, and the study lasts for 12 weeks. […] The CON group and high-fat control (HF) group are given with vehicle only. The low-fat diet consisted of fat 10%, whereas the high-fat diet (HFD) consisted of fat 45% (of total energy, % kcal). The compositions of the experimental diets are shown as described. At the end of the study, food is derived from the animals (from 10 p.m. to 10 a.m.). On the next day, the mice are sacrificed, and blood and tissue are collected for analysis. Livers, skeletal muscles, and white adipose tissues (WATs) (including epididymal, mesenteric and retroperitoneal WAT) are excised and weighed, and then immediately stored in a freezer at −80° C. Heparin (30 units/mL) (Sigma) is added to blood samples. Plasma samples are collected by centrifugation at 1600 g for 15 min at 4° C. within 30 min, and plasma is obtained for insulin and leptin level analysis.
Protein extractions and immunoblots for the determination of membrane GLUT4, phospho-AMPK (Thr172), and phospho-Akt (Ser 473) proteins are carried out on frozen skeletal muscle and liver tissue from mice, which follows a previous paper. Additionally, membrane GLUT4 is carried out on frozen skeletal muscle from mice, and the total membrane fractions are collected with buffer and centrifuged as a previously described. The protein contents of membrane GLUT4, phospho-AMPK, phospho-Akt, total AMPK, and total Akt are detected by western blotting. Western blotting has been determined as described elsewhere. Subsequently, antibodies are detected using horseradish peroxidase linked to a goat anti-IgG rabbit secondary antibody and visualized using an ECL system. Membrane GLUT4, structural proteins GAPDH and β-actin are purchased from Santa Cruz Biotechnology (Santa Cruz, Calif., USA); phospho-AMPK was obtained from Abcam Inc. (Cambridge, Mass., USA); phospho-Akt, total AMPK, and total Akt are from Cell Signaling Technology, Inc. (Danver Mass., USA); the BCA protein assay kit is from Thermo Scientific (Rockford, Ill., USA); and the ECL reagent kit is from GE Healthcare BioSciences (Buckinghamshire, UK). The secondary antibody antirabbit is from Jackson ImmunoResearch Laboratories, Inc. (West Grove, Pa., USA). The density blotting is analyzed using Alpha Easy FC software (Alpha Innotech Corp., Randburg, South Africa). Structural proteins GAPDH and β-actin are obtained by stripping the nitrocellulose membrane proteins of liver and skeletal muscle, respectively.

[1] = test system: phospho-Akt (Ser 473)/total Akt; test: Western blotting of phospho-Akt (Ser 473)/total Akt; conditions: HFD-fed mice, vs HF mice
Procedure: as §1
Protein extractions and immunoblots for the determination of membrane GLUT4, phospho-AMPK (Thr172), and phospho-Akt (Ser 473) proteins are carried out on frozen skeletal muscle and liver tissue from mice, which follows a previous paper. […] The protein contents of membrane GLUT4, phospho-AMPK, phospho-Akt, total AMPK, and total Akt are detected by western blotting. Western blotting has been determined as described elsewhere. Subsequently, antibodies are detected using horseradish peroxidase linked to a goat anti-IgG rabbit secondary antibody and visualized using an ECL system. […] The density blotting is analyzed using Alpha Easy FC software (Alpha Innotech Corp., Randburg, South Africa). […]

PPARα mRNA = test: Semiquantitative RT-PCR, liver tissue: PPARα; conditions: HFD-fed mice
Procedure: as §1
The experiment is performed as in a previously described protocol. Total RNA from the liver tissue is isolated with a Trizol reagent (Molecular Research Center, Inc., Cincinnati, Ohio, USA) according to the manufacturer's directions. Total RNA (1 μg) is reverse transcribed to cDNA with 5 μL of Moloney murine leukemia virus reverse transcriptase (Epicenter, Madison, Wis., USA) as a previously described protocol. […] The relative density of the band is evaluated using AlphaDigiDoc 1201 software (Alpha Innotech Co., San Leandro, Calif., USA). All of the measured PCR products are normalized to the amount of cDNA of GAPDH in each sample.

## CC(C)[C@@H](C)C=C[C@@H](C)[C@H]1CC[C@H]2C3=CCC4C[C@@H](O)CC[C@]4(C)C3=CC[C@]12C (stereo partly drawn) [ergostatrien-3β-ol, ergosta-7,9(11),22-trien-3β-ol]
phospho-AMPK (Thr172); liver tissue, 10 mg/kg/day
  protein contents of phospho-AMPK: significantly increased
phospho-AMPK (Thr172); liver tissue, 20 mg/kg/day
  protein contents of phospho-AMPK: significantly increased
phospho-AMPK (Thr172); liver tissue, 40 mg/kg/day
  protein contents of phospho-AMPK: significantly increased
phospho-AMPK (Thr172); skeletal muscle, 10 mg/kg/day
  protein contents of phospho-AMPK: significantly increased
phospho-AMPK (Thr172); skeletal muscle, 20 mg/kg/day
  protein contents of phospho-AMPK: significantly increased
phospho-AMPK (Thr172); skeletal muscle, 40 mg/kg/day
  protein contents of phospho-AMPK: significantly increased
[1]; 10 mg/kg/day
  levels of phospho-Akt/total Akt: higher
[1]; 20 mg/kg/day
  levels of phospho-Akt/total Akt: higher
[1]; 40 mg/kg/day
  levels of phospho-Akt/total Akt: higher
PPARα mRNA; 10 mg/kg/day
  mRNA level of PPARα: increase
PPARα mRNA; 20 mg/kg/day
  mRNA level of PPARα: increase
PPARα mRNA; 40 mg/kg/day
  mRNA level of PPARα: increase
